Experiments:
[1] = background statement; cited from earlier work
[2] = cited from earlier work
[3] = Solubility in solvents (qualitative); format: physicochemical
[4] = Bulk density of crystal product; format: physicochemical
Protocol: (§1) The crystal habit of the hydrate of dimethylaminomicheliolide fumarate is studied in the present disclosure, and a scanning electron micrograph thereof is shown in FIG. 3. —The crystal has a regular block crystal habit, and the surface of the particle is smooth without agglomeration, meanwhile, the crystal has a large average particle size that can reach 300 μm, a bulk density of 0.65 g/mL, and an angle of repose of 32°. The product features high bulk density and good fluidity. In comparison, the crystalline form A prepared using the natural cooling recrystallization method disclosed in patent CN103724307B has a primary particle size of 35.8 μm, a bulk density of mere 0.270 g/mL and an angle of repose of 62°, and a scanning electron micrograph thereof is shown in FIG. 4.

[5] = Angle of repose (fluidity); format: physicochemical; details: crystal product without auxiliary materials
Protocol: as §1
The hydrate of the present disclosure has good fluidity and is more suitable for being prepared as a medicament at a later stage. It is well known that the fluidity of an active ingredient per se is generally hard to meet the filling conditions of capsules or microcapsules, and auxiliary materials such as pregelatinized starch, silica and magnesium stearate are required to meet the requirements for fluidity by the filling conditions so as to achieve the desired quality of dosage forms and production efficiency. Taking the specification of 100 mg capsules as an example, if other forms such as crystalline form A are used as active ingredients, the weight of capsule contents reaches about 310 mg after auxiliary materials are added, and thus the largest 0 # capsule shell must be used, and larger specification such as capsules containing 200 mg of active ingredients cannot be prepared.

[6] = Crystal particle size (scanning electron micrograph of crystal morphology); format: physicochemical; details: for average particle size: crystal product, SEM
Protocol: as §1

[7] = Stability of the hydrate at 45° C., humidity 75%, 30 days (XRD and purity analysis); format: physicochemical
Protocol: The stability of the hydrate of dimethylaminomicheliolide fumarate is investigated in the present disclosure. The […] crystal compound product is uniformly distributed in an open Petri dish. The temperature is controlled at 45° C., the humidity is 75%, and the sample thickness is less than 5 mm. The Petri dish is hermetically placed in a drier for 30 days. Then the samples placed for 7, 14 and 30 days were examined by XRD and compared with the results on day 0. […] Meanwhile, the samples at days 7, 14 and 30 are subjected to purity analysis. […] By combining the XRD patterns and the results of the purity analysis, the hydrate of dimethylaminomicheliolide fumarate is shown to have good stability.

| Compound | bulk density [4] [g/mL] | angle of repose [5] [°] | average particle size [6] [μm] | also measured |
| --- | --- | --- | --- | --- |
| CC1=C2CC[C@@](C)(O)[C@@H]2[C@H]2OC(=O)[C@@H](CN(C)C)[C@@H]2CC1 [DMAMCL, dimethylaminomicheliolide] | – | – | – | solubility in water [1]: improved solubility in water to a certain degree relative to MCL; stability on long-term storage ([2]; background statement): unstable |
| CC1=C2CC[C@@](C)(O)[C@@H]2[C@H]2OC(=O)[C@@H](CN(C)C)[C@@H]2CC1.O=C(O)/C=C/C(=O)O [Dimethylaminomicheliolide fumarate] | – | – | – | solubility ([3]; in cyclohexane, n-hexane, n-heptane, dichloromethane, isopropyl ether and toluene): almost insoluble; solubility ([3]; in water, methanol, ethanol, tetrahydrofuran, 1,4-dioxane, acetone, acetonitrile and isopropyl acetate): soluble |
| CC1=C2CC[C@@](C)(O)[C@@H]2[C@H]2OC(=O)[C@@H](CN(C)C)[C@@H]2CC1.O=C(O)/C=C/C(=O)O [Example 1, hydrate of dimethylaminomicheliolide fumarate] | 0.646 | 32.5 | ≤ 300 | – |
| CC1=C2CC[C@@](C)(O)[C@@H]2[C@H]2OC(=O)[C@@H](CN(C)C)[C@@H]2CC1.O=C(O)/C=C/C(=O)O [Example 2, hydrate of dimethylaminomicheliolide fumarate] | 0.655 | 32 | ≤ 300 | – |
| CC1=C2CC[C@@](C)(O)[C@@H]2[C@H]2OC(=O)[C@@H](CN(C)C)[C@@H]2CC1.O=C(O)/C=C/C(=O)O [Example 3, hydrate of dimethylaminomicheliolide fumarate] | 0.65 | 32 | ≤ 300 | – |
| CC1=C2CC[C@@](C)(O)[C@@H]2[C@H]2OC(=O)[C@@H](CN(C)C)[C@@H]2CC1.O=C(O)/C=C/C(=O)O [Example 4, hydrate of dimethylaminomicheliolide fumarate] | 0.659 | 32.2 | ≤ 300 | – |
| CC1=C2CC[C@@](C)(O)[C@@H]2[C@H]2OC(=O)[C@@H](CN(C)C)[C@@H]2CC1.O=C(O)/C=C/C(=O)O [Example 5, hydrate of dimethylaminomicheliolide fumarate] | 0.645 | 32 | ≤ 300 | – |
| CC1=C2CC[C@@](C)(O)[C@@H]2[C@H]2OC(=O)[C@@H](CN(C)C)[C@@H]2CC1.O=C(O)/C=C/C(=O)O [Example 6, hydrate of dimethylaminomicheliolide fumarate] | 0.65 | 32.3 | ≤ 300 | – |
| CC1=C2CC[C@@](C)(O)[C@@H]2[C@H]2OC(=O)[C@@H](CN(C)C)[C@@H]2CC1.O=C(O)/C=C/C(=O)O [Example 7, hydrate of dimethylaminomicheliolide fumarate] | 0.65 | 32 | ≤ 300 | – |
| CC1=C2CC[C@@](C)(O)[C@@H]2[C@H]2OC(=O)[C@@H](CN(C)C)[C@@H]2CC1.O=C(O)/C=C/C(=O)O [Example 8, hydrate of dimethylaminomicheliolide fumarate] | 0.654 | 32.1 | ≤ 300 | – |
| CC1=C2CC[C@@](C)(O)[C@@H]2[C@H]2OC(=O)[C@@H](CN(C)C)[C@@H]2CC1.O=C(O)/C=C/C(=O)O [Example 9, hydrate of dimethylaminomicheliolide fumarate] | 0.645 | 32.3 | ≤ 300 | – |
| CC1=C2CC[C@@](C)(O)[C@@H]2[C@H]2OC(=O)[C@@H](CN(C)C)[C@@H]2CC1.O=C(O)/C=C/C(=O)O [crystalline form A, dimethylaminomicheliolide fumarate] | 0.270 | 62 | – | stability of the crystalline form ([2]; prone to transformation): poor stability; primary particle size ([6]; form A from natural cooling recrystallization, method of CN103724307B): 35.8 μm |
| CC1=C2CC[C@@](C)(O)[C@@H]2[C@H]2OC(=O)[C@@H](CN(C)C)[C@@H]2CC1.O=C(O)/C=C/C(=O)O [hydrate of dimethylaminomicheliolide fumarate] | 0.65 | 32 | ≤ 300 | angle of repose ([5]; listed as hydrate of dimethylaminomicheliolide fumarate in the crystalline form D): 32 °; change in purity vs day 0 ([7]; day 7): 0.015%; change in purity vs day 0 ([7]; day 14): 0.027%; change in purity vs day 0 ([7]; day 30): 0.046%; change in the XRD pattern ([7]; days 7, 14 and 30 vs day 0): no significant change |
| C=C1C(=O)O[C@H]2[C@H]1CCC(C)=C1CC[C@@](C)(O)[C@@H]12 [micheliolide] | – | – | – | solubility in water [1]: poor solubility in water |

From patent US12319666B2, “Hydrate of dimethylaminomicheliolide fumarate and preparation method therefor and use thereof” (priority 2020, dated 2025)
